Measurements taken from patent US11666650B2, “Immune composition comprising respiratory syncytial virus (RSV) G polypeptide” (ADVACCINE (SUZHOU) BIOPHARMACEUTICALS CO. LTD., priority 2019, dated 2023).

Tests used:
JAWSII cells = test: IL-1β inhibition in stimulated JAWSII cells; format: cell-based, mouse; conditions: immune regulator alone, LPS+Alum stimulated, 24 hours
Protocol: JAWSII cells (mouse bone marrow cells) were recovery from liquid nitrogen and put into a water bath at 37° C. The cells were washed twice with the MEM media. The recovered cells were cultured in 10 mL cMEM (MEM+20% FBS+5 ng/mL rmGM-CSF) for 5-7 days. The cells were ready for use after 2 passages.
The cell supernatant was collected for further analysis.
Each supernatant noted above was centrifuged under 12000 rpm at 4° C. for 5 minutes. The level of IL-1β (an immune active biomarker) was measured following the ELISA procedure provided below.
15. Calculate the IL-1β concentration of tested subject by standard curve. Inhibition percentage (%) was calculated as the percentage of the reduction of IL-1β level of each tested sample as compared with the positive control (LPS+Alum) and the blank control.

[1] = test system: red blood cell suspension; test: Hemolytic assay of formulations; format: cell-based, Mouse
Protocol: Mouse blood was collected and added with 800 μl of 15 mg/ml of EDTA to prevent the coagulation. It was centrifuged at 1,500 rpm for 15 min followed by discarding of the supernatant. The pellet was resuspended into 1 ml PBS, and centrifugated at 1,500 rpm for 15 min. The procedure was repeated for approximately 2 or 3 times until the supernatant became clear. The pellet containing red blood cells was resuspended with PBS at 1:10 to get 10% of red cell suspension after discarding supernatant, then further diluted into 2% with PBS. Five hundred microliters of 2% red blood cell suspension were mixed with 500 μl of different formulations, respectively, for a period of 180 minutes at 37° C. The hemolysis was recorded by a camera from the beginning to the end. After that, sample was centrifuged at 1,500 rpm for 2 min, the absorbance of supernatant was measured at OD405nm and the results were statistically analyzed.

Row | SMILES | inhibition (immune suppression) of IL-1β level (JAWSII cells) | hemolysis [1]
1 | C=CC[C@@H]1/C=C(\C)C[C@H](C)C[C@H](OC)[C@H]2O[C@@](O)(C(=O)C(=O)N3CCCC[C@H]3C(=O)O[C@H](/C(C)=C/[C@@H]3CC[C@@H](O)[C@H](OC)C3)[C@H](C)[C@@H](O)CC1=O)[C@H](C)C[C@@H]2OC [FK506] | around 100% | 
2 | CC(O)CO (stereo not drawn) [propylene glycol] |  | Various degrees of hemolysis
3 | CO[C@H]1C[C@@H]2CC[C@@H](C)[C@@](O)(O2)C(=O)C(=O)N2CCCC[C@H]2C(=O)O[C@H]([C@H](C)C[C@@H]2CC[C@@H](O)[C@H](OC)C2)CC(=O)[C@H](C)/C=C(\C)[C@@H](O)[C@@H](OC)C(=O)[C@H](C)C[C@H](C)/C=C/C=C/C=C/1C [rapamycin] | around 60% | 
